Where two headings read alike, the source gives them in different places.
Experiments:
[1] = test system: Key Grass and Sedge Weeds as well as Grass Crops; test: Post-Emergent Test II: postemergent herbicidal activity, visual rating after 14 d (Table 8); assay type: in vivo; settings: post-emergence, 336 h; for pest or weed control at 35 g/ha: 35 g ai/ha; for pest or weed control at 70 g/ha: 70 g ai/ha; for pest or weed control at 140 g/ha: 140 g ai/ha
Outline: (§1)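 Plants were raised in a greenhouse for 7-21 d and treated once at the first or second true leaf stage. Compounds, dissolved in 97:3 acetone:DMSO then diluted into an aqueous acetone/isopropanol/crop oil/Triton X-155 carrier, were applied by overhead track sprayer at 187 L/ha. After 14 d with subirrigation, injury was scored visually from 0 (none) to 100 (complete kill).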

[2] = test system: Key Broadleaf Weed and Crop Species; test: Post-Emergent Test II: postemergent herbicidal activity, visual rating after 14 d (Table 7); assay type: in vivo; settings: post-emergence, 336 h; for pest or weed control at 35 g/ha: 35 g ai/ha; for pest or weed control at 70 g/ha: 70 g ai/ha; for pest or weed control at 140 g/ha: 140 g ai/ha
Outline: as §1

[3] = barnyardgrass (Echinochloa crus-galli), read-out: Visual Growth Reduction (%) 14 Days After Application ECHCG
[4] = giant foxtail (Setaria faberi), read-out: Visual Growth Reduction (%) 14 Days After Application SETFA
[5] = maize, corn (Zea mays), read-out: Visual Growth Reduction (%) 14 Days After Application ZEAMX
[6] = rice (Oryza sativa), read-out: Visual Growth Reduction (%) 14 Days After Application ORYSA
[7] = wheat, spring (Triticum aestivum), read-out: Visual Growth Reduction (%) 14 Days After Application TRZAS
[8] = yellow nutsedge (Cyperus esculentus), read-out: Visual Growth Reduction (%) 14 Days After Application CYPES
[9] = lambsquarters (Chenopodium album), read-out: Visual Growth Reduction (%) 14 Days After Application CHEAL
[10] = oilseed rape, canola (Brassica napus), read-out: Visual Growth Reduction (%) 14 Days After Application BRSNN
[11] = redroot pigweed (Amaranthus retroflexus), read-out: Visual Growth Reduction (%) 14 Days After Application AMARE
[12] = sunflower (Helianthus annuus), read-out: Visual Growth Reduction (%) 14 Days After Application HELAN
[13] = velvetleaf (Abutilon theophrasti), read-out: Visual Growth Reduction (%) 14 Days After Application ABUTH
[14] = wild poinsettia (Euphorbia heterophylla), read-out: Visual Growth Reduction (%) 14 Days After Application EPHHL

| SMILES | pest or weed control at 35 g/ha [1, 3] [%] | pest or weed control at 70 g/ha [1, 3] [%] | pest or weed control at 140 g/ha [1, 3] [%] | pest or weed control at 35 g/ha [1, 4] [%] | pest or weed control at 70 g/ha [1, 4] [%] | pest or weed control at 140 g/ha [1, 4] [%] | pest or weed control at 35 g/ha [1, 5] [%] | pest or weed control at 70 g/ha [1, 5] [%] | pest or weed control at 140 g/ha [1, 5] [%] | pest or weed control at 35 g/ha [1, 6] [%] | pest or weed control at 70 g/ha [1, 6] [%] | pest or weed control at 140 g/ha [1, 6] [%] | pest or weed control at 35 g/ha [1, 7] [%] | pest or weed control at 70 g/ha [1, 7] [%] | pest or weed control at 140 g/ha [1, 7] [%] | pest or weed control at 35 g/ha [1, 8] [%] | pest or weed control at 70 g/ha [1, 8] [%] | pest or weed control at 140 g/ha [1, 8] [%] | pest or weed control at 35 g/ha [2, 9] [%] | pest or weed control at 70 g/ha [2, 9] [%] | further results |
| --- | --- | --- | --- | --- | --- | --- | --- | --- | --- | --- | --- | --- | --- | --- | --- | --- | --- | --- | --- | --- | --- |
| COC(=O)c1nc(-c2ccc3c(c2F)OC(F)(F)O3)c(Cl)c(N)c1Cl [Compound 4] | 0 to 29 | 0 to 29 | 0 to 29 | 0 to 29 | 0 to 29 | 0 to 29 | 0 to 29 | 0 to 29 | 0 to 29 | 0 to 29 | 0 to 29 | 0 to 29 | 0 to 29 | 0 to 29 | 0 to 29 | 0 to 29 | 0 to 29 | 0 to 29 | 0 to 29 | 0 to 29 | pest or weed control at 140 g/ha [2, 9]: 0 to 29%; pest or weed control at 35 g/ha [2, 10]: 0 to 29%; pest or weed control at 70 g/ha [2, 10]: 0 to 29%; pest or weed control at 140 g/ha [2, 10]: 0 to 29%; pest or weed control at 35 g/ha [2, 11]: 0 to 29%; pest or weed control at 70 g/ha [2, 11]: 0 to 29%; pest or weed control at 140 g/ha [2, 11]: 0 to 29%; pest or weed control at 35 g/ha [2, 12]: 0 to 29%; pest or weed control at 70 g/ha [2, 12]: 45 to 59%; pest or weed control at 140 g/ha [2, 12]: 60 to 74%; pest or weed control at 35 g/ha [2, 13]: 0 to 29%; pest or weed control at 70 g/ha [2, 13]: 0 to 29%; pest or weed control at 140 g/ha [2, 13]: 0 to 29%; pest or weed control at 35 g/ha [2, 14]: 0 to 29%; pest or weed control at 70 g/ha [2, 14]: 0 to 29%; pest or weed control at 140 g/ha [2, 14]: 0 to 29% |
| COC(=O)c1nc(-c2ccc3c(c2)OC(F)(F)O3)c(F)c(N)c1Cl [Compound 6] | 95 to 100 | 95 to 100 | 95 to 100 | 60 to 74 | 75 to 84 | 85 to 94 | 85 to 94 | 85 to 94 | 85 to 94 | 30 to 44 | 45 to 59 | 45 to 59 | 45 to 59 | 60 to 74 | 60 to 74 | 95 to 100 | 95 to 100 | 95 to 100 | 95 to 100 | 95 to 100 | pest or weed control at 140 g/ha [2, 9]: 95 to 100%; pest or weed control at 35 g/ha [2, 10]: 75 to 84%; pest or weed control at 70 g/ha [2, 10]: 85 to 94%; pest or weed control at 140 g/ha [2, 10]: 85 to 94%; pest or weed control at 35 g/ha [2, 11]: 75 to 84%; pest or weed control at 70 g/ha [2, 11]: 75 to 84%; pest or weed control at 140 g/ha [2, 11]: 95 to 100%; pest or weed control at 35 g/ha [2, 12]: 85 to 94%; pest or weed control at 70 g/ha [2, 12]: 85 to 94%; pest or weed control at 140 g/ha [2, 12]: 95 to 100%; pest or weed control at 35 g/ha [2, 13]: 95 to 100%; pest or weed control at 70 g/ha [2, 13]: 95 to 100%; pest or weed control at 140 g/ha [2, 13]: 95 to 100%; pest or weed control at 35 g/ha [2, 14]: 85 to 94%; pest or weed control at 70 g/ha [2, 14]: 85 to 94%; pest or weed control at 140 g/ha [2, 14]: 95 to 100% |
| Nc1c(F)c(-c2ccc3c(c2)OC(F)(F)O3)nc(C(=O)O)c1Cl [Compound 7] | 95 to 100 | 95 to 100 | 95 to 100 | 95 to 100 | 95 to 100 | 95 to 100 | 95 to 100 | 95 to 100 | 95 to 100 | 30 to 44 | 30 to 44 | 60 to 74 | 45 to 59 | 60 to 74 | 60 to 74 | 95 to 100 | 95 to 100 | 95 to 100 | 95 to 100 | 95 to 100 | pest or weed control at 140 g/ha [2, 9]: 95 to 100%; pest or weed control at 35 g/ha [2, 10]: 85 to 94%; pest or weed control at 70 g/ha [2, 10]: 85 to 94%; pest or weed control at 140 g/ha [2, 10]: 95 to 100%; pest or weed control at 35 g/ha [2, 11]: 75 to 84%; pest or weed control at 70 g/ha [2, 11]: 95 to 100%; pest or weed control at 140 g/ha [2, 11]: 95 to 100%; pest or weed control at 35 g/ha [2, 12]: 95 to 100%; pest or weed control at 70 g/ha [2, 12]: 95 to 100%; pest or weed control at 140 g/ha [2, 12]: 95 to 100%; pest or weed control at 35 g/ha [2, 13]: 85 to 94%; pest or weed control at 70 g/ha [2, 13]: 85 to 94%; pest or weed control at 140 g/ha [2, 13]: 95 to 100%; pest or weed control at 35 g/ha [2, 14]: 95 to 100%; pest or weed control at 70 g/ha [2, 14]: 95 to 100%; pest or weed control at 140 g/ha [2, 14]: 95 to 100% |

From patent US9149038B2, “4-amino-6-(heterocyclic)picolinates and 6-amino-2-(heterocyclic)pyrimidine-4-carboxylates and their use as herbicides” (Dow AgroSciences LLC, priority 2013, dated 2015)
